The values that follow come from article PMC4822341 (Cell Discovery, 2015).

The target in series [1] is T1, GR (Homo sapiens, UniProt P04150).
T1 construct: expressed in transfected cells; host or cells: AD293
T1 sequence (P04150 1-777): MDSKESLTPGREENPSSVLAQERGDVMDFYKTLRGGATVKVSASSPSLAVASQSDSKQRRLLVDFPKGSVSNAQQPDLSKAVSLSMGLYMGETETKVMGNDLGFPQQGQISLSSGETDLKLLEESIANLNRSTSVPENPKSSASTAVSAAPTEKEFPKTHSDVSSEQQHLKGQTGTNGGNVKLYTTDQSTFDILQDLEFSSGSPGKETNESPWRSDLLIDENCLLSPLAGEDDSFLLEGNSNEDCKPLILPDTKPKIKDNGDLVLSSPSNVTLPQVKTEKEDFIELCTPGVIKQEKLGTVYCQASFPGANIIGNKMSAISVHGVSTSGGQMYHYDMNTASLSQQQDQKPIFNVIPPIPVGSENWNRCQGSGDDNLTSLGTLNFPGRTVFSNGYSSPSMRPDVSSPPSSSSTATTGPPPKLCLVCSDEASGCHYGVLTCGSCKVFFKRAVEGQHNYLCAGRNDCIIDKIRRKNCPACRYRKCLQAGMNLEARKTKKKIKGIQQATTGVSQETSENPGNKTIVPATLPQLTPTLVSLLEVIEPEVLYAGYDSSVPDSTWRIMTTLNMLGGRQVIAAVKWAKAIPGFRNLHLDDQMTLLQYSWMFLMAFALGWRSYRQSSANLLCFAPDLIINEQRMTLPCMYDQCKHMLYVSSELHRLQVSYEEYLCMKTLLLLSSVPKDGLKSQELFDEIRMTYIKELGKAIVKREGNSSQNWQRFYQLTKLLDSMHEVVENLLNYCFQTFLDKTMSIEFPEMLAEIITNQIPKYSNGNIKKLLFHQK
In words: In vitro H3-Dex competition GR ligand-binding assay. The conditions noted are these: H3-DEX 15 nM, GR cytosol. From the text:
The in vitro GR binding assay is similar to the one described previously. […] Data were plotted as a standard competition curve by GraphPad Prism 5.

Series [2] relates to IL-6 release from A549 cells. In words: Cytokine inhibition assay, IL-6 release from A549 cells. The following applies: Homo sapiens, TNFα 2 ng ml^-1, read-out: IC50 (suppression of IL-6 release). Format: cell-based. On the procedure:
A549 cells into 24-well plates were split at 40 000 cells/well. After 1 day growth, cells were treated with various steroids 1 h before overnight induction of inflammation by 2 ng ml^–1 TNFα according to literature. Sixteen hours after treatment, cell culture supernatants were subjected to anti-IL-6 Elisa (R&D Quantikine Elisa Human IL-6 Kit) according to the manual.

Series [3] has as its system RAW264.7 cells. In words: Gene expression (microarray and quantitative PCR) in LPS-stimulated RAW264.7 cells. The conditions noted are these: RAW264.7, LPS, steroid 100 nM. The series is classed as cell-based, mouse. On the procedure:
Mouse macrophage RAW264.7 cells were grown in 6-well plates to reach 80% confluence. The cells were pretreated with different steroids at 100 nM 1 h before overnight induction of inflammation by 1 μg ml^–1 LPS. Total RNA was isolated using a Qiagen mini RNA extraction kit (Valencia, CA, USA). Complementary DNA was synthesized from total RNA with an Invitrogen Superscript cDNA synthesis kit (Carlsbad, CA, USA). Target genes were quantified with a Power SYBR Green Real-Time PCR kit (Carlsbad, CA, USA) (ABI) in a StepOnePlus real-time PCR instrument (Applied Biosystems, Carlsbad, CA, USA). In every case, GAPDH (glyceraldehyde-3-phosphate dehydrogenase) was used as an internal control and data were analyzed by the ΔΔCt method. The specificity of target primers was tested both in a dissociation (melting) curve (Supplementary Figure S4) and against a water control. Primer sequence information is included in Supplementary Figure S4.
RAW264.7 cells were treated with designated steroids at 100 nM 1 h before overnight LPS stimulation of inflammation. Each treatment was duplicated. The following day, RNA samples were isolated using a Qiagen mini RNA extraction kit and applied to the Agilent Whole Mouse Genome 8x60K gene expression platform. Data were analyzed by the limma package in R program. Heat maps were generated by the HeatMap 2 package. Pathway analysis was done via DAVID Bioinformatics Resources 6.7 (NIAID) and Venn diagrams were generated by BioVenn.

Series [4] in a line: Spleen size and weight (spleen atrophy). The series is classed as in vivo, DBA/1 mice. The following applies: 2 weeks. As to the method:
Figure 5 Examination of side effects of VSGC12 and FF at the effective dose. (a) Body weight of DBA/1 mice treated with the indicated daily dose of steroids for 2 weeks. Mice body weight was measured at day 0, 7 and 14. (b) Insulin-tolerance test of mice treated with the indicated daily doses of steroids for 7 days. Glucose level was measured at day 7 at various time points before and after insulin injection. Data were plotted as percent of the glucose level of time 0. (c) Plasma insulin levels of mice treated with the indicated daily doses of steroid for 7 days. (d) Spleen size and weight for mice treated with the indicated daily doses of steroid for 2 weeks. (e) Cortical bone thickness of femurs of mice treated with the indicated daily doses of steroid for 2 weeks. (f) Bone stiffness of femurs of mice treated with the indicated daily doses of steroid for 2 weeks. Mouse strain: DBA/1. Each treatment n=5, error bars indicate s.e.m., *P<0.05; **P<0.01; ***P<0.001.

Series [5] in a line: Insulin-tolerance test and plasma insulin level. The conditions noted are these: 7 days.
Description: DBA/1 mice (Taconic) were weighted just before the experiment. After 4 h fasting, mice were i.p. injected with 0.75 U kg^–1 of insulin (Huamlin R). Blood samples were taken from the tail at time 0 (before insulin injection), 15, 30, 45, 60, 90 and 120 min after injection. Plasma glucose levels were measured using an AlphaTrak glucose meter. All data were plotted as percent of glucose level at time 0. Endogenous insulin levels were measured using the Ultra Sensitive Mouse Insulin ELISA kit (Crystal Chem, Downers Groove, IL, USA).

For `CON(C)C(=O)C1(OC(=O)c2ccco2)C(C)CC2C3CC(F)C4=Cc5c(cnn5-c5ccccc5)CC4(C)C3(F)C(O)CC21C` (centres unmarked) [VSGC12], the IC50 (commonly the concentration at which inhibition is half-maximal) in series [1] came out at 6.1 nM; in series [2] it was 0.05 nM. Also, in series [3], the “inhibition activity of pro-inflammatory cytokines (microarray, normalized to DEX)” value was “much stronger inhibition activity than DEX”. Also, the “repression activity on pro-inflammatory cytokines by quantitative PCR” value in series [3] is “much higher repression activity on IL-1β, IL-6 and IL-33 than FF and DEX”. The “atrophy of the spleen” value is “only a mild change in spleen size” in series [4] (0.0625 mg kg^-1 daily) and “less severe atrophy” in series [4] (0.25 mg kg^-1 daily). The “insulin resistance in insulin-tolerance test” value in series [5] (0.0625 mg kg^-1 daily) is recorded as “no longer induced insulin resistance”; in series [5] (0.25 mg kg^-1 daily) it was “still caused insulin resistance, the resistance was much less severe than for FF”.
